In ChEMBL document CHEMBL4346723, “Targeting tropomyosin receptor kinase for cancer therapy” (Eur J Med Chem, 2019):
Values belong to the molecule of their own block, whether it stands above or below them.

Columns and labels:
[1] = biological target: NTRK1/NTRK2 (Homo sapiens, UniProt P04629+Q16620); assay: Inhibition of TRKA/TRKB (unknown origin); type: protein assay
[2] = biological target: T1, High affinity nerve growth factor receptor (Homo sapiens, UniProt P04629); assay: Inhibition of NTRK1 in human KM12 cells; type: cell-based
T1 sequence (P04629 whole entry): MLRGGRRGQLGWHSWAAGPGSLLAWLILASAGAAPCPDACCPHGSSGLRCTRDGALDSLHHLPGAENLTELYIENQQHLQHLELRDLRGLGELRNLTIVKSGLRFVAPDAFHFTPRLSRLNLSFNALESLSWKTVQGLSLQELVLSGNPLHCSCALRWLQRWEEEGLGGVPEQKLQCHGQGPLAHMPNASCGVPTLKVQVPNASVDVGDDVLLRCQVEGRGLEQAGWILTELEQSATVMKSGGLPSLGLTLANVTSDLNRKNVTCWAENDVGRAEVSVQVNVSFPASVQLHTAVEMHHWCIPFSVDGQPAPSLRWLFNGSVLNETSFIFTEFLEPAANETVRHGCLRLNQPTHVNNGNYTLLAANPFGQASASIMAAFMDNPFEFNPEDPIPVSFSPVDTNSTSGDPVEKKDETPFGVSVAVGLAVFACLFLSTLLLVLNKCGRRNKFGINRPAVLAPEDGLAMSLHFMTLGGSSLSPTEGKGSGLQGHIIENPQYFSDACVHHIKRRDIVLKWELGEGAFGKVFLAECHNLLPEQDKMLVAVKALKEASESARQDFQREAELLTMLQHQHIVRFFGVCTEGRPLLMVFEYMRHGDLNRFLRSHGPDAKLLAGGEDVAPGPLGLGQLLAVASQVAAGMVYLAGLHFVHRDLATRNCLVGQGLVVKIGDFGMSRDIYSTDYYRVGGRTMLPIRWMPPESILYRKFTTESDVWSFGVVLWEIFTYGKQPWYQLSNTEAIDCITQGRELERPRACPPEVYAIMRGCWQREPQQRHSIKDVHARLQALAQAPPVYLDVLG

[3] = Inhibition of TRK (unknown origin); parameters: species or system Homo sapiens
[4] = biological target: T1, High affinity nerve growth factor receptor; assay: Inhibition TRKA (unknown origin)
[5] = biological target: T1, High affinity nerve growth factor receptor; assay: Inhibition of recombinant N- terminal GST-tagged human NTRK1 expressed in baculovirus infected Sf9 cells using Poly(Glu:Tyr) as substrate after 45 mins
[6] = biological target: T2, Tyrosine-protein kinase JAK2 (Homo sapiens, UniProt O60674); assay: Inhibition of N-terminal His-tagged human JAK2 catalytic domain (826 to 1132 end residues) expressed in baculovirus expression system using TK peptide as substrate after 120 mins by HTRF assay
T2 sequence (O60674 whole entry, the tested form may be a part): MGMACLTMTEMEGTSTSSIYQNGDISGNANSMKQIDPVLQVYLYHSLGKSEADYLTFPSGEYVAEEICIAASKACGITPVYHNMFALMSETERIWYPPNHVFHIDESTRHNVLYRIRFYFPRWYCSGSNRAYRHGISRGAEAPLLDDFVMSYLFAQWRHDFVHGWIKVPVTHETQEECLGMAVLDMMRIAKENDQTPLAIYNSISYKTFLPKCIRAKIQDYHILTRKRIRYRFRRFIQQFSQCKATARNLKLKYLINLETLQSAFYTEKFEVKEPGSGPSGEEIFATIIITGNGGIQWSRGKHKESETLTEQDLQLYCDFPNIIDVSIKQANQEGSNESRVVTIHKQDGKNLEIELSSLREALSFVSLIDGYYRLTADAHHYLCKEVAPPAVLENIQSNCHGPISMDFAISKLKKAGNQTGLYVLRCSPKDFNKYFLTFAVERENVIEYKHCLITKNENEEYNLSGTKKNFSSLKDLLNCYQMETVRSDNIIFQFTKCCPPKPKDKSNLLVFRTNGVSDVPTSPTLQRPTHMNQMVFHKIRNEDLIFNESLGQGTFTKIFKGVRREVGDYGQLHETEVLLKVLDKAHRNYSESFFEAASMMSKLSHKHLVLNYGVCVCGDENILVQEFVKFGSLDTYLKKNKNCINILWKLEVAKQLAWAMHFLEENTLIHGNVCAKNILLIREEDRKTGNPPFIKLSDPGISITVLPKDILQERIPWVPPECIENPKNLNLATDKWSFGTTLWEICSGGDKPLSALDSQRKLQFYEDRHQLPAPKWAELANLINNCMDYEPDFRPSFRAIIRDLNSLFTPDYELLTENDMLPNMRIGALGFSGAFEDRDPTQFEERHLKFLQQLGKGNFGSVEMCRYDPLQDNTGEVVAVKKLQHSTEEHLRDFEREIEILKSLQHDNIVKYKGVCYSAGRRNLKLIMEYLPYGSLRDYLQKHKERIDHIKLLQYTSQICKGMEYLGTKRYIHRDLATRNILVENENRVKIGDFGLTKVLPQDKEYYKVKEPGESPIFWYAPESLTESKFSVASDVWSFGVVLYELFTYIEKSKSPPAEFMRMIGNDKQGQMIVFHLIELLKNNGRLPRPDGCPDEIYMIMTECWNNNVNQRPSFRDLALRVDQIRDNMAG

[7] = biological target: T1, High affinity nerve growth factor receptor; assay: Inhibition of N- terminal GST-tagged human TRKA cytoplasmic domain (436 to 790 end residues) using TK peptide as substrate after 60 mins by HTRF assay
[8] = biological target: T3, BDNF/NT-3 growth factors receptor (Homo sapiens, UniProt Q16620); assay: Inhibition of N- terminal GST-tagged human TRKB cytoplasmic domain (456 to 822 end residues) expressed in baculovirus expression system using TK peptide as substrate after 60 mins by HTRF assay
T3 sequence (Q16620 whole entry, the tested form may be a part): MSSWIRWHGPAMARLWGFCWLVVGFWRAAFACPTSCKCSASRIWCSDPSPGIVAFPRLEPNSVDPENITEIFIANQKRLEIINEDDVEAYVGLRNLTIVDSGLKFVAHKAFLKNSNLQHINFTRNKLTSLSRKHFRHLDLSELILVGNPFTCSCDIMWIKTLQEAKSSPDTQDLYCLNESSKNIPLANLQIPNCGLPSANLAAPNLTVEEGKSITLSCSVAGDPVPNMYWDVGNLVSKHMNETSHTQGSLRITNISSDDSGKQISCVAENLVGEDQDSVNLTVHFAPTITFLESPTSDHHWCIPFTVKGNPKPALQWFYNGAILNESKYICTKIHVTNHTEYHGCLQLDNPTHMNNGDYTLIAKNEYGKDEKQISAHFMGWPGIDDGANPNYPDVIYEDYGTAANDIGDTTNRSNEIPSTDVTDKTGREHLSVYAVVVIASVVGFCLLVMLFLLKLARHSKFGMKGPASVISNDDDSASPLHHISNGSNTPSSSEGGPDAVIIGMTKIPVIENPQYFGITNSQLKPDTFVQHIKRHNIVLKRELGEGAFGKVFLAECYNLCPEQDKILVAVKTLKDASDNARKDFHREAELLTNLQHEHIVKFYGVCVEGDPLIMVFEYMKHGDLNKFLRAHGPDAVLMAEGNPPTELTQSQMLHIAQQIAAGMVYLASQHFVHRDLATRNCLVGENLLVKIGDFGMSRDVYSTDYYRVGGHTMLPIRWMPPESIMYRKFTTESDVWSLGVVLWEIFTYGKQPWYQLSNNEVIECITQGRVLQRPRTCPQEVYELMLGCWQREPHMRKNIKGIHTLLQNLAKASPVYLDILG

[9] = biological target: NT-3 growth factor receptor (Homo sapiens, UniProt Q16288); assay: Inhibition of N- terminal GST-tagged human TRKC catalytic domain (456 to 825 end residues) expressed in baculovirus expression system using TK peptide as substrate after 60 mins by HTRF assay
Sequence of NT-3 growth factor receptor (Q16288 whole entry, the tested form may be a part): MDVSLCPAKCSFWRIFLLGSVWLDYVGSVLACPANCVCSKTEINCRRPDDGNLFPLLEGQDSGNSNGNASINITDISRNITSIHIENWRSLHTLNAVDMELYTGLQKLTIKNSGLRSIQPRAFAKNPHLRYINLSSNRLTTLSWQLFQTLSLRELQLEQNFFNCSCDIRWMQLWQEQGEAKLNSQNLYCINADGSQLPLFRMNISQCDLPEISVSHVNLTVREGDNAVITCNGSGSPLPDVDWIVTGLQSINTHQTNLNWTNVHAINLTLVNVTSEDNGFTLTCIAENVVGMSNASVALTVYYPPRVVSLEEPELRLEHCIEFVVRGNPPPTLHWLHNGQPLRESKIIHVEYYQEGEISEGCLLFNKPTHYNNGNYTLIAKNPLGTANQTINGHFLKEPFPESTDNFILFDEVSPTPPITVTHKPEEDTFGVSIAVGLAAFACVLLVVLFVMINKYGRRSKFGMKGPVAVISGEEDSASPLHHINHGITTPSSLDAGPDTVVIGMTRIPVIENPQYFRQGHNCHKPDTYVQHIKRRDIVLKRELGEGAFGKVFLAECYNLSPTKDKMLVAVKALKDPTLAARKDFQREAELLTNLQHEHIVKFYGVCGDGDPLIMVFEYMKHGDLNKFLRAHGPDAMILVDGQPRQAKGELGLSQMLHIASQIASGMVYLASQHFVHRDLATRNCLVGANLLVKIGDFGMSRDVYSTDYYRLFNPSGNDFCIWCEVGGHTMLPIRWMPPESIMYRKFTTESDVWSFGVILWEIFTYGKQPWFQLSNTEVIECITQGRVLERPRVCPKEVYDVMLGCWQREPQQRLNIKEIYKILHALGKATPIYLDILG

[10] = biological target: T1, High affinity nerve growth factor receptor; assay: Inhibition of recombinant full length human TRKA expressed in U2OS cells using Poly(Glu:Tyr) as substrate after 30 mins by scintillation counting assay
[11] = biological target: T1, High affinity nerve growth factor receptor; assay: Inhibition TRKA (unknown origin) by cell based assay
[12] = biological target: T2, Tyrosine-protein kinase JAK2; assay: Inhibition of recombinant C-terminal His6-tagged human JAK2 (808 to end residues) expressed in baculovirus infected SF21 insect cells at 3 uM using Tyr 1054/1055 biotinylated peptide as substrate after 60 mins by Alphascreen assay relative to control
[13] = cells; details: Homo sapiens, SR-786, 48 h
Description: Antiproliferative activity against human SR786 cells incubated for 48 hrs by sulforhodamine B assay

[14] = cells; details: Homo sapiens, SUP-M2, 48 h
Description: Antiproliferative activity against human SUP-M2 cells incubated for 48 hrs by sulforhodamine B assay

[15] = system: KARPAS-299; assay: cells; details: Homo sapiens, KARPAS-299, 48 h
Description: Antiproliferative activity against human KARPAS299 cells incubated for 48 hrs by sulforhodamine B assay

[16] = system: SU-DHL-1; assay: cells; details: Homo sapiens, SU-DHL-1, 48 h
Description: Antiproliferative activity against human SU-DHL1 cells incubated for 48 hrs by sulforhodamine B assay

[17] = system: MV4-11; assay: cells; details: Homo sapiens, MV4-11, 48 h
Description: Antiproliferative activity against human MV4-11 cells incubated for 48 hrs by sulforhodamine B assay

[18] = system: OVCAR-3; assay: Cytotoxicity against human OVCAR3 cells after 24 to 72 hrs by MTT assay; type: functional, cell-based
[19] = system: SK-OV-3; assay: Cytotoxicity against human SKOV3 cells after 24 to 72 hrs by MTT assay; type: functional, cell-based
[20] = biological target: T3, BDNF/NT-3 growth factors receptor; assay: Inhibition of TRKB (unknown origin)
[21] = biological target: Tyrosine-protein kinase BTK (Homo sapiens, UniProt Q06187); assay: Inhibition of BTK (unknown origin)
Sequence of Tyrosine-protein kinase BTK (Q06187 whole entry, the tested form may be a part): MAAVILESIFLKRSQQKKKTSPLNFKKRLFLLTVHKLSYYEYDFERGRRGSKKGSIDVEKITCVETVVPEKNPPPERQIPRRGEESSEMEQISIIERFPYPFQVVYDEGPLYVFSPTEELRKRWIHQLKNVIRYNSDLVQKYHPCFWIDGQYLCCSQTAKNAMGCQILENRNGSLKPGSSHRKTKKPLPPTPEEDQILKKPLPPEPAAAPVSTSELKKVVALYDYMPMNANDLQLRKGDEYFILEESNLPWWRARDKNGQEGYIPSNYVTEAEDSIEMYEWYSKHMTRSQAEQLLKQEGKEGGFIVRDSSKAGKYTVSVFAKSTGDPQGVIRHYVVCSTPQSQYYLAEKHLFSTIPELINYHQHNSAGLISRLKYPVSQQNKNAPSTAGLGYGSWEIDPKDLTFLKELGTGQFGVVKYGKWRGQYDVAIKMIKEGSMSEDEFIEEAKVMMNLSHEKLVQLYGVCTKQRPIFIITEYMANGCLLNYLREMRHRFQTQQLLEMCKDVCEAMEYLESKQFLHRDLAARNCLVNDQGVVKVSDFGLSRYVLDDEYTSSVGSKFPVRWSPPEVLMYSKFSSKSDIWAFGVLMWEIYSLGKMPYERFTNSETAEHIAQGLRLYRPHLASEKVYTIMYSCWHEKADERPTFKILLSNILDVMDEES

[22] = biological target: T1, High affinity nerve growth factor receptor; assay: Inhibition of recombinant His-tagged human TRKA cytoplasmic domain (441 to 796 residues) expressed in baculovirus expression system using biotin labelled TK peptide preincubated for 20 mins followed by substrate addition by HTRF assay
[23] = system: KM12; assay: cells; details: Homo sapiens
Description: Growth inhibition of human KM12 cells

[24] = system: K562; assay: Growth inhibition of human K562 cells; type: functional, cell-based
[25] = biological target: T1, High affinity nerve growth factor receptor; assay: Inhibition of TRKA (unknown origin) using poly GT as substrate preincubated for 30 mins followed by substrate addition measured after 30 mins by TR-FRET Assay

Molecule: CC(C)c1cc(C(=O)c2cccc(NC(=O)Nc3ccc(OCc4ccccc4)cc3)c2)c2c(N)ncnn12
- IC50 [1]: < 1 nM

Molecule: CC(C)c1cc(C(=O)c2cccc(NC(=O)Nc3ccc(Cl)cc3Cl)c2)c2c(N)ncnn12
- IC50 [1]: < 1 nM
- IC50 [4]: < 1 nM

Molecule: CC(C)c1cc(C(=O)c2cccc(NC(=O)Nc3ccccc3)c2)c2c(N)ncnn12
- IC50 [1]: < 1 nM

Molecule: Nc1cc(NS(=O)(=O)c2cccc(C(F)(F)F)c2)cc(-c2ccc3c(-c4ccncc4)c[nH]c3n2)c1
- IC50 [3]: > 1000 nM

Molecule: O=C(Nc1c(-c2ccccc2)nc2sccn12)NC1c2ccccc2-c2ccccc21
- IC50 [10]: 30 to 35 nM

Molecule: CN1CCN(c2ccc(C(=O)Nc3n[nH]c4ccc(Cc5cc(F)cc(F)c5)cc34)c(NC3CCOCC3)c2)CC1 [ENTRECTINIB]
- IC50 [13]: 81 nM
- IC50 [14]: 41 nM
- IC50 [15]: 31 nM
- IC50 [16]: 20 nM
- IC50 [17]: 81 nM

Molecule: H-TGLDSDGLYQN-OH
- IC50 [18]: 200 nM
- IC50 [19]: 200 nM

Molecule: O=C(Nc1cccnc1-c1ccccc1)NC1c2ccccc2-c2ccccc21
- IC50 [10]: 27 to 30 nM

Molecule: H-NTDLLNSNDNG-OH
- IC50 [18]: 200 nM
- IC50 [19]: 200 nM

Molecule: Nc1cc(CNC(=O)c2cc(NC(=O)c3cc(-c4cccc(F)n4)c(Cl)cc3Cl)n(-c3ccccc3)n2)ccn1
- IC50 [22]: 1.02 nM

Molecule: CS(=O)(=O)Nc1cccc(-c2c[nH]c3ncc(-c4cncc(NS(=O)(=O)c5ccccc5)c4)cc23)c1
- IC50 [3]: > 1000 nM

Molecule: CCN1CCN(Cc2ccc(NC(=O)Nc3nc4ccc(Oc5ccnc(C(=O)NC)c5)cc4s3)cc2C(F)(F)F)CC1
- IC50 [23]: 19 nM
- IC50 [20]: 4.42 nM
- IC50 [4]: 3.81 nM
- GI50 [24]: 51.4 nM

Second part, the molecule after the results:

- IC50 [2]: < 10 nM
Molecule: N#Cc1cc(F)cc([C@H]2C[C@H](F)CN2c2ccn3ncc(C#N)c3n2)c1

- IC50 [3]: > 1000 nM
Molecule: C[C@@H]1CCc2ncc(F)cc2[C@H]2CCCN2c2ccn3ncc(c3n2)C(=O)N1 [SELITRECTINIB]

- IC50 [2]: < 10 nM
Molecule: COc1ncc(F)cc1[C@H]1C[C@H](F)CN1c1ccn2ncc(C#N)c2n1

- IC50 [5]: < 10 nM
Molecule: CC(C)c1nnc(-c2cnn3ccc(N4CCCC4c4cc(F)ccc4F)nc23)o1 (stereo not drawn)

- IC50 [3]: 63 nM
Molecule: C[C@H](Nc1ccc([N+](=O)[O-])c(Nc2cc(C3CC3)[nH]n2)n1)c1ccc(F)cc1

- IC50 [3]: 10 nM
Molecule: C[C@H](Nc1ncc(F)c(Nc2cc(C3CC3)[nH]n2)n1)c1ccc(F)cn1

- IC50 [2]: < 10 nM
Molecule: N#Cc1cnn2ccc(N3C[C@@H](F)C[C@@H]3c3cc(F)ccc3F)nc12

- IC50 [6]: > 2000 nM
- IC50 [7]: < 1 nM
- IC50 [8]: < 10 nM
- IC50 [9]: < 10 nM
Molecule: NC(=O)c1c(N)nn2cc(N3CCC[C@@H]3c3cc(F)ccc3F)cnc12

- IC50 [10]: 0.5 to 1 nM
Molecule: CS(=N)(=O)c1ccc(-c2ccc(CNC(=O)Cn3c4c(c5ccccc53)CCn3nccc3-4)nc2)cc1 (stereo not drawn)

- IC50 [10]: 1.5 nM
- IC50 [11]: 1.3 nM
Molecule: COCCN1C[C@@H](NC(=O)Nc2c(C)c(C(C)(C)C)nn2-c2ccccc2)[C@H](c2ccc(F)c(F)c2)C1

- inhibition [12]: 100%
Molecule: Cc1cc(Nc2cncc(N[C@@H](C)c3ccc(F)cc3)n2)n[nH]1

- IC50 [5]: < 10 nM
Molecule: CC(C)(C)c1nnc(-c2cnn3ccc(N4CCCC4c4cc(F)ccc4F)nc23)o1 (stereo not drawn)

- IC50 [3]: 109 nM
Molecule: C[C@H](Nc1nc(Nc2cc(C3CC3)[nH]n2)c(Cl)cc1Cl)c1ccc(F)cc1

- IC50 [20]: 5000 nM
- IC50 [10]: 0.2 nM
- IC50 [21]: 9.67 nM
Molecule: CC(C)N1Cc2cc(c(F)cc2F)OCCCNC(=O)c2cnn3ccc1nc23

- IC50 [6]: > 500 nM
- IC50 [7]: < 1 nM
- IC50 [8]: < 10 nM
- IC50 [9]: < 10 nM
Molecule: Nc1nn2cc(N3CCC[C@@H]3c3cc(F)ccc3F)cnc2c1C(=O)Nc1ccc(F)cc1

- IC50 [3]: 67 nM
Molecule: C[C@H](Nc1nccc(Nc2cc(C3CC3)[nH]n2)n1)c1ccc(F)cc1

- IC50 [25]: < 50 nM
Molecule: O=C(c1cnc2ccc(N3CCCC3c3cc(F)ccc3F)cn12)N1CC[C@H](O)C1 (stereo partly drawn)
